Measurements taken from PubChem BioAssay (NCI).
Where “and” joins values, the source holds several entries; their conditions need not be identical. Equal values may be shown once.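 How tested: cells in 96-well plates exposed to compound for 48 hours at five concentrations. GI50 marks 50% less growth. TGI marks complete inhibition of growth.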

Legend:
Assay in all cases: growth of human tumour cells (NCI), 48 h
[1] = tested on: 786-0 renal
[2] = tested on: A498 renal
[3] = tested on: A549 NSCLC
[4] = tested on: ACHN renal
[5] = tested on: BT-549 breast
[6] = tested on: CAKI-1 renal
[7] = tested on: CCRF-CEM leukemia
[8] = tested on: COLO 205 colon
[9] = tested on: DU-145 prostate
[10] = tested on: EKVX NSCLC
[11] = tested on: HCC-2998 colon
[12] = tested on: HCT-116 colon
[13] = tested on: HCT-15 colon
[14] = tested on: HL-60(TB) leukemia
[15] = tested on: HOP-62 NSCLC
[16] = tested on: HOP-92 NSCLC
[17] = tested on: HS 578T breast
[18] = tested on: HT29 colon
[19] = tested on: IGROV1 ovarian
[20] = tested on: K-562 leukemia
[21] = tested on: KM12 colon
[22] = tested on: LOX IMVI melanoma
[23] = tested on: M14 melanoma
[24] = tested on: MALME-3M melanoma
[25] = tested on: MCF7 breast
[26] = tested on: MDA-MB-231 breast
[27] = tested on: MDA-MB-435
[28] = tested on: MOLT-4 leukemia
[29] = tested on: NCI-H226 lung
[30] = tested on: NCI-H23 lung
[31] = tested on: NCI-H460 lung
[32] = tested on: NCI-H522 lung
[33] = tested on: NCI/ADR-RES ovarian
[34] = tested on: OVCAR-3 ovarian
[35] = tested on: OVCAR-4 ovarian
[36] = tested on: OVCAR-5 ovarian
[37] = tested on: OVCAR-8 ovarian
[38] = tested on: PC-3 prostate
[39] = tested on: RPMI-8226 leukemia
[40] = tested on: RXF 393 renal
[41] = tested on: SF-268 CNS
[42] = tested on: SF-295 CNS
[43] = tested on: SF-539 CNS
[44] = tested on: SK-MEL-2 melanoma
[45] = tested on: SK-MEL-28 melanoma
[46] = tested on: SK-MEL-5 melanoma
[47] = tested on: SK-OV-3 ovarian
[48] = tested on: SN12C renal
[49] = tested on: SNB-19 CNS
[50] = tested on: SNB-75 CNS
[51] = tested on: SR leukemia
[52] = tested on: SW-620 colon
[53] = tested on: T-47D breast
[54] = tested on: TK-10 renal
[55] = tested on: U251 CNS
[56] = tested on: UACC-257 melanoma
[57] = tested on: UACC-62 melanoma
[58] = tested on: UO-31 renal

## COc1cc(O)c2c(c1)/C=C/C[C@H](O)[C@H](O)C(=O)/C=C\C[C@H](C)OC2=O
[1]
  GI50: 3.88 µM and 3.81 µM
  TGI: 8.49 µM and 15.8 µM
[2]
  GI50: 4.93 µM and 4.48 µM
  TGI: 32.3 µM and 67.7 µM
[3]
  GI50: 4.77 µM and 34.8 µM
  TGI: 33.5 µM and > 100 µM
[4]
  GI50: 0.877 µM and 1.74 µM
  TGI: 5.61 µM and 14.4 µM
[5]
  TGI: 3.28 µM and 13.1 µM
[6]
  GI50: 0.514 µM and 0.403 µM
  TGI: 6.31 µM and 12.7 µM
[7]
  GI50: 1.01 µM and 2.42 µM
  TGI: 11.4 µM and 9.13 µM
[8]
  GI50: 0.0614 µM and 0.194 µM
  TGI: 3.98 µM and 12 µM
[9]
  GI50: 2.09 µM and 5.28 µM
  TGI: 13.8 µM and 18.6 µM
[10]
  GI50: 3.01 µM and 15.3 µM
  TGI: 10.7 µM and 52.2 µM
[11]
  GI50: 2.46 µM and 9.46 µM
  TGI: 7.09 µM and 23.3 µM
[12]
  GI50: 0.515 µM and 0.601 µM
  TGI: 3.66 µM and 10 µM
[13]
  GI50: 0.618 µM and 2.17 µM
  TGI: 4.64 µM and 12.4 µM
[14]
  GI50: 0.218 µM and 0.205 µM
  TGI: 4.27 µM and 2.55 µM
[15]
  GI50: 4.14 µM and 14.5 µM
  TGI: 10.9 µM and 40.2 µM
[16]
  GI50: 0.165 µM and 0.223 µM
  TGI: 3.1 µM and 0.973 µM
[17]
  GI50: 3.91 µM and 2.72 µM
  TGI: 28.5 µM and 13.1 µM
[18]
  GI50: 0.0462 µM and 0.0821 µM
  TGI: 4.35 µM and 10.3 µM
[19]
  GI50: 3.74 µM and 2.64 µM
  TGI: 16.9 µM and 20.9 µM
[20]
  GI50: 1.11 µM and 2.15 µM
  TGI: 27 µM and 12.3 µM
[21]
  GI50: 1.54 µM and 5.53 µM
  TGI: 6.87 µM and 24.8 µM
[22]
  GI50: 0.477 µM and 1.04 µM
  TGI: 3.59 µM and 4.44 µM
[23]
  GI50: 0.022 µM and 0.05 µM
  TGI: 1.42 µM and 10.3 µM
[24]
  GI50: 0.00579 µM and 0.0157 µM
  TGI: 0.0926 µM and 0.0572 µM
[25]
  GI50: 0.891 µM and 2.89 µM
  TGI: 4.13 µM and 10.9 µM
[26]
  TGI: 7.26 µM and 27 µM
[27]
  GI50: 0.157 µM and 0.171 µM
  TGI: 6.56 µM and 2.55 µM
[28]
  GI50: 0.763 µM and 2.25 µM
  TGI: 3.75 µM and 8 µM
[29]
  GI50: 5.45 µM
  TGI: 33.5 µM
[30]
  GI50: 0.559 µM
  TGI: 4.56 µM
[31]
  GI50: 2.29 µM and 3.34 µM
  TGI: 33.5 µM and 17.2 µM
[32]
  GI50: 0.357 µM and 2.05 µM
  TGI: 4.01 µM and 12.7 µM
[33]
  GI50: 1.92 µM and 4.11 µM
  TGI: 9.55 µM and 31.5 µM
[34]
  GI50: 0.991 µM and 2.88 µM
  TGI: 7.27 µM and 14.2 µM
[35]
  GI50: 3.55 µM and 2.52 µM
  TGI: 33.5 µM and 23.3 µM
[36]
  GI50: 3.61 µM and 4.27 µM
  TGI: 10.3 µM and 22.6 µM
[37]
  GI50: 1.44 µM and 2.87 µM
  TGI: 7.22 µM and 14.6 µM
[38]
  GI50: 4.62 µM and 9.91 µM
  TGI: 15 µM and 28.7 µM
[39]
  GI50: 0.815 µM and 1.59 µM
  TGI: 4.66 µM and 7.41 µM
[40]
  GI50: 1.07 µM and 2.01 µM
  TGI: 5.7 µM and 7.21 µM
[41]
  GI50: 4.7 µM and 12.8 µM
  TGI: 33.5 µM and 55.7 µM
[42]
  GI50: 4.32 µM and 18.6 µM
  TGI: 11.1 µM and 45 µM
[43]
  GI50: 1.92 µM and 3.12 µM
  TGI: 6.89 µM and 15.3 µM
[44]
  GI50: 2.61 µM and 2.81 µM
  TGI: 9.12 µM and 13.7 µM
[45]
  GI50: 0.0148 µM and 0.0458 µM
  TGI: 3.52 µM and 1.04 µM
[46]
  GI50: 0.331 µM and 2.69 µM
  TGI: 4.53 µM and 14.4 µM
[47]
  GI50: 5.73 µM and 17.9 µM
  TGI: 21.6 µM and 80.3 µM
[48]
  GI50: 1.35 µM and 4.12 µM
  TGI: 9.17 µM and 23.7 µM
[49]
  GI50: 5.71 µM and 14.9 µM
  TGI: 23.5 µM and 73.3 µM
[50]
  GI50: 5.72 µM and 3.57 µM
  TGI: 17 µM and 31 µM
[51]
  GI50: 0.358 µM and 0.671 µM
  TGI: 5.94 µM and 6.49 µM
[52]
  GI50: 0.224 µM and 0.469 µM
  TGI: 8.33 µM and 10.3 µM
[53]
  GI50: 1.18 µM and 2.66 µM
  TGI: 11.5 µM and 21.3 µM
[54]
  GI50: 1.86 µM and 5.29 µM
  TGI: 7.31 µM and 31.1 µM
[55]
  GI50: 1.8 µM and 11.2 µM
  TGI: 6.99 µM and 23.5 µM
[56]
  GI50: 0.0252 µM and 0.139 µM
  TGI: 1.74 µM and 1.27 µM
[57]
  GI50: 0.0173 µM and 0.113 µM
  TGI: 2.89 µM and 9.52 µM
[58]
  GI50: 0.237 µM and 0.326 µM
  TGI: 5.42 µM and 11.9 µM

## CN(C)CCNC(=O)c1ccc(-c2nc3ccc4[nH]ncc4c3c3c2CCC3)cc1
[1]
  GI50: 0.882 µM
  TGI: 5.61 µM
[2]
  GI50: 0.281 µM
  TGI: 1.07 µM
[3]
  GI50: 1.26 µM
  TGI: 6.78 µM
[4]
  GI50: 0.844 µM
  TGI: 6.86 µM
[5]
  GI50: 0.65 µM
  TGI: 1.43 µM
[6]
  GI50: 0.263 µM
  TGI: 5.54 µM
[7]
  GI50: 0.857 µM
  TGI: 28.7 µM
[8]
  GI50: 0.507 µM
  TGI: 2.23 µM
[9]
  GI50: 0.76 µM
  TGI: 5.01 µM
[10]
  GI50: 0.891 µM
  TGI: 5.01 µM
[11]
  GI50: 1.25 µM
  TGI: 5.68 µM
[12]
  GI50: 0.331 µM
  TGI: 4.34 µM
[13]
  GI50: 1.61 µM
  TGI: 7.63 µM
[14]
  GI50: 0.992 µM
  TGI: 3.34 µM
[15]
  GI50: 0.593 µM
  TGI: 2.67 µM
[16]
  GI50: 0.343 µM
  TGI: 1.84 µM
[17]
  GI50: 0.549 µM
  TGI: 1.99 µM
[18]
  GI50: 1.29 µM
  TGI: 6.13 µM
[19]
  GI50: 0.684 µM
  TGI: 5.4 µM
[20]
  GI50: 1.11 µM
  TGI: 20.1 µM
[21]
  GI50: 1.08 µM
  TGI: 4.62 µM
[22]
  GI50: 0.616 µM
  TGI: 1.5 µM
[23]
  GI50: 0.961 µM
  TGI: 6.08 µM
[24]
  GI50: 1.26 µM
  TGI: 4.13 µM
[25]
  GI50: 0.657 µM
  TGI: 5.25 µM
[26]
  GI50: 0.927 µM
  TGI: 2.84 µM
[27]
  GI50: 1.13 µM
  TGI: 6.99 µM
[28]
  GI50: 1.04 µM
  TGI: 15.3 µM
[29]
  GI50: 1.01 µM
  TGI: 6.34 µM
[30]
  GI50: 1.19 µM
  TGI: 3.94 µM
[31]
  GI50: 1.28 µM
  TGI: 5.17 µM
[32]
  GI50: 0.387 µM
  TGI: 1.32 µM
[33]
  GI50: 9.07 µM
  TGI: 50 µM
[35]
  GI50: 1.33 µM
  TGI: 5.48 µM
[36]
  GI50: 1.4 µM
  TGI: 7.34 µM
[37]
  GI50: 0.854 µM
  TGI: 5.8 µM
[38]
  GI50: 0.717 µM
  TGI: 4.96 µM
[39]
  GI50: 1.19 µM
  TGI: 4.14 µM
[40]
  GI50: 0.279 µM
  TGI: 1.1 µM
[41]
  GI50: 0.634 µM
  TGI: 2.14 µM
[42]
  GI50: 1.34 µM
  TGI: 5.38 µM
[43]
  GI50: 0.606 µM
  TGI: 1.74 µM
[44]
  GI50: 0.85 µM
  TGI: 1.83 µM
[45]
  GI50: 1.31 µM
  TGI: 5.34 µM
[46]
  GI50: 1.6 µM
  TGI: 5.98 µM
[47]
  GI50: 0.288 µM
  TGI: 3.04 µM
[48]
  GI50: 1.13 µM
  TGI: 4.15 µM
[49]
  GI50: 1.47 µM
  TGI: 6.21 µM
[50]
  GI50: 0.543 µM
  TGI: 2.04 µM
[51]
  GI50: 0.14 µM
  TGI: 2.82 µM
[52]
  GI50: 0.611 µM
  TGI: 3.61 µM
[53]
  GI50: 1.37 µM
  TGI: 9.66 µM
[54]
  GI50: 0.295 µM
  TGI: 5.38 µM
[55]
  GI50: 1.02 µM
  TGI: 6.51 µM
[56]
  GI50: 2.31 µM
  TGI: 8.36 µM
[57]
  GI50: 1.1 µM
  TGI: 6.1 µM
[58]
  GI50: 1.07 µM
  TGI: 4.66 µM
